Laboratory results published in patent US9594084B2, “Phosphorylation of histones and uses thereof” (H. LEE MOFFITT CANCER CENTER AND RESEARCH INSTITUTE, priority 2012, dated 2017).

System: pY37-H2B marks within IDH2
Experiment: ChIP-qPCR of pY37-H2B marks within IDH2 in GBM derived cell lines
Type: cell-based, human
Settings: U87
From the text: FIG. 44a-44f show H2B Tyr37-phosphorylation marks are deposited within IDH2.
To validate the role of WEE1 in IDH2 marking, chromatin from GBM derived cell line U87 was immunoprecipitated using the pY37-H2B antibody followed by qPCR. […] Similar data was obtained with another human GBM derived cell lines T98G (FIG. 44E).

C=CCn1c(=O)c2cnc(Nc3ccc(N4CCN(C)CC4)cc3)nc2n1-c1cccc(C(C)(C)O)n1 [MK-1775]
pY37-H2B marks within IDH2: completely erased
